This is an account of results in ChEMBL document CHEMBL1132668, “The design of potent and selective inhibitors of thrombin utilizing a piperazinedione template: part 1” (Bioorg Med Chem Lett, 1999).

The target in experiment [1] is T1, Prothrombin (Homo sapiens, UniProt P00734). The experiment can be described thus: Binding affinity against thrombin.
Experiment [2] deals with T2, Serine protease 1 (Homo sapiens, UniProt P07477). Kind of experiment: Inhibitory activity against human trypsin.
Experiment [3] deals with T1, Prothrombin. Kind of experiment: Inhibitory activity against human thrombin.
Experiment [4] deals with T2, Serine protease 1. The experiment can be described thus: Tested for the inhibition of trypsin at a concentration of 100 uM.
In experiment [5] the target is T2, Serine protease 1. The experiment can be described thus: Compound was tested for the binding affinity against trypsin.

T2 sequence (P07477 whole entry): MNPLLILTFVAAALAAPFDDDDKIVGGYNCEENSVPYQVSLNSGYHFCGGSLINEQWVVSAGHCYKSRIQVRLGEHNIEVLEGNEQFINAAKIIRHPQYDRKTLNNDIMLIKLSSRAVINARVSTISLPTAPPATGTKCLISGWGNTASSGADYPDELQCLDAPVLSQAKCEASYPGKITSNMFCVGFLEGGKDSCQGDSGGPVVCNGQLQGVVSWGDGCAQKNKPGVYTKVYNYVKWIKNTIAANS

In the case of `N=C(N)N1CCCC(C[C@H](NC(=O)CN2C(=O)CN(CCCc3ccccc3)C(=O)[C@@H]2CC2CCCCC2)C(=O)c2nccs2)C1` (stereo partly specified), the Ki at Prothrombin [1] came to 75 nM. Also, the IC50 came out at 18500 nM against Serine protease 1 [2] and 430 nM against Prothrombin [3].
`N=C(N)NCCC[C@H](NC(=O)CN1C(=O)CN(CCCc2ccccc2)C(=O)[C@@H]1Cc1ccccc1)C(=O)c1nccs1`: the results for the IC50 on Serine protease 1 [2] and on Prothrombin [3] were 90 nM and 130 nM, respectively.
For the compound `CN1CC(=O)N(CC(=O)N[C@@H](CC2CCCN(C(=N)N)C2)C(=O)c2nccs2)[C@@H](Cc2ccc3ccccc3c2)C1=O` (stereo partly specified), on Prothrombin [1], the affinity, expressed as Ki, was 140 nM. In addition, the IC50 worked out at 26600 nM against Serine protease 1 [2] and 1270 nM at Prothrombin [3].
On the same counts, the results for `CCCC[C@H]1C(=O)N(CCCc2ccccc2)CC(=O)N1CC(=O)N[C@@H](CC1CCCN(C(=N)N)C1)C(=O)c1nccs1` (stereo partly specified) are 98 nM, 42700 nM and 1600 nM.
On to `N=C(N)N1CCCC(C[C@H](NC(=O)CN2C(=O)CN(CCCc3ccccc3)C(=O)[C@@H]2Cc2cccnc2)C(=O)c2nccs2)C1` (stereo partly specified), for which the inhibition at Serine protease 1 [4] stood at 40%. In addition, the IC50 on Prothrombin [3] amounted to 1000 nM.
Turning to `N=C(N)N1CCCC(C[C@H](NC(=O)CN2C(=O)CN(CCCc3ccccc3)C(=O)C2C(c2ccccc2)c2ccccc2)C(=O)c2nccs2)C1` (stereo partly specified), the IC50 against Serine protease 1 [2] was determined as 9700 nM; against Prothrombin [3] it was 750 nM.
As to `N=C(N)N1CCCC(C[C@H](NC(=O)CN2C(=O)CN(CCCc3ccccc3)C(=O)[C@@H]2Cc2ccc(Cl)cc2)C(=O)c2nccs2)C1` (stereo partly specified), the Ki at Prothrombin [1] came out at 40 nM. Also, the concentration for half-maximal inhibition (IC50) was 33400 nM at Serine protease 1 [2] and 170 nM at Prothrombin [3].
`C[C@H]1C(=O)N(CCCc2ccccc2)CC(=O)N1CC(=O)N[C@@H](C[C@@H]1CCCN(C(=N)N)C1)C(=O)c1nccs1`: at Prothrombin [1], the Ki came out at 65 nM. The results for the IC50 at Serine protease 1 [2] and on Prothrombin [3] were 24000 nM and 760 nM, respectively.
In the case of `N=C(N)N1CCCC(C[C@H](NC(=O)CN2CC(=O)N(CCCc3ccccc3)CC2=O)C(=O)c2nccs2)C1` (stereo partly specified), the Ki at Prothrombin [1] was 495 nM. Moreover, the IC50 was 91200 nM against Serine protease 1 [2] and 4700 nM on Prothrombin [3].
For the compound `CC(C)C[C@H]1C(=O)N(CCCc2ccccc2)CC(=O)N1CC(=O)N[C@@H](CC1CCCN(C(=N)N)C1)C(=O)c1nccs1` (stereo partly specified), the inhibition against Serine protease 1 [4] turned out to be 69%. The compound further registered a Ki at Prothrombin [1] of 165 nM. For the same compound, the half-inhibitory concentration (IC50) on Prothrombin [3] was 4300 nM.
On to `N=C(N)N1CCCC(C[C@H](NC(=O)CN2C(=O)CN(Cc3ccccc3)C(=O)[C@@H]2Cc2ccc3ccccc3c2)C(=O)c2nccs2)C1` (stereo partly specified), for which, on Serine protease 1 [2], the IC50 came to 11100 nM.
Take `CC(C)[C@H]1C(=O)N(CCCc2ccccc2)CC(=O)N1CC(=O)N[C@@H](CC1CCCN(C(=N)N)C1)C(=O)c1nccs1` (stereo partly specified): the IC50 against Serine protease 1 [2] is 74800 nM; on Prothrombin [3] it was 1800 nM.
On to `CCC(C)[C@H]1C(=O)N(CCCc2ccccc2)CC(=O)N1CC(=O)N[C@@H](CC1CCCN(C(=N)N)C1)C(=O)c1nccs1` (stereo partly specified), for which the inhibition on Serine protease 1 [4] was 67%. The same compound gave a Ki at Prothrombin [1] of 200 nM. Besides, the IC50 on Prothrombin [3] came to 3400 nM.
At Prothrombin [1], `COc1ccc(C[C@H]2C(=O)N(CCCc3ccccc3)CC(=O)N2CC(=O)N[C@@H](CC2CCCN(C(=N)N)C2)C(=O)c2nccs2)cc1` (stereo partly specified) returned a Ki of 43 nM. Moreover, the IC50 against Serine protease 1 [2] is 3800 nM; at Prothrombin [3], 350 nM.
`N=C(N)N1CCC[C@@H](C[C@H](NC(=O)CN2C(=O)CN(CCCc3ccccc3)C(=O)[C@@H]2Cc2ccccc2)C(=O)c2nccs2)C1`: the inhibition at Serine protease 1 [4] is 80%. The compound also returned a Ki at Prothrombin [1] of 24 nM. For the same compound, 240 nM corresponded to half-maximal inhibition against Prothrombin [3] (IC50).
For `N=C(N)N1CCCC(C[C@H](NC(=O)CN2C(=O)CN(CCCc3ccccc3)C(=O)[C@@H]2CCc2ccccc2)C(=O)c2nccs2)C1` (stereo partly specified), at Prothrombin [1], the inhibition constant (Ki) came out at 105 nM. The 50% inhibitory concentration (IC50) against Serine protease 1 [2] came out at 29000 nM; against Prothrombin [3], 590 nM.
Turning to `N=C(N)N1CCCC(C[C@H](NC(=O)CN2C(=O)CN(CCCc3ccccc3)C(=O)[C@@H]2Cc2ccc3ccccc3c2)C(=O)c2nccs2)C1` (stereo partly specified), the values for the inhibition constant Ki on Prothrombin [1] and on Serine protease 1 [5] were 30 nM and 13.5 nM, respectively. Besides, the results for the concentration for half-maximal inhibition (IC50) against Serine protease 1 [2] and against Prothrombin [3] were 27000 nM and 45 nM, respectively.
